Source: US20240207329A1, “METHODS OF TREATING ADENOCARCINOMA WITH HUMAN MICROBIOTA DERIVED N-ACYL AMIDES” (ICAHN SCHOOL OF MEDICINE AT MOUNT SINAI, priority 2021, published 2024)

Experiments:
[1] = system: Tumor organoids; test: Treatment of mouse tumor organoids with N-acyl amides, end-point viability by CellTiter-Glo; assay type: cell-based, mice; conditions: for IC50: mouse tumor organoids, viability 3 days post-drug addition, CellTiter-Glo, triplicate; for liver cancer growth and/or survival: tumor organoid dose-response curves, FIG. 7
Protocol: Tumor organoids were prepared from the animal model described in Example 1 (i.e. tissue from control animals was isolated at 24 weeks and tumor organoids prepared therefrom). Tumor organoids were generated according to protocols known in the art (Broutier, L., Andersson-Rolf, A., Hindley, C J., Boj, S F., Clevers, H., et al., Culture and establishment of self-renewing human and mouse adult liver and pancreas 3D organoids and their genetic manipulation. Nat Protoc. 2016. 11(9): 1724-43 and Broutier, L. Mastrogiovanni, G., Verstegen, M M., Francies, H E., Gavarro, L M., et al., Human primary liver cancer-derived organoid cultures for disease modeling and drug screening. Nat Med. 2017 23(12): 1424-1435). Liver biopsies were digested in sterile PBS containing 0.125 mg/mL collagenase IV, 0.125 mg/mL dispase II, and 0.1 mg/mL DNaseI. Digestions were performed at 37° C. for at least 4 hours. Tissue dissociate was filtered through a 70 μm strainer and washed with basal media (Advanced DMEM/F12, 1% L-glutamine, 1% penstrep, 1 mM HEPES). Cells were counted, washed, and resuspended at 50,000 cells/50 μL matrigel. 50 μL matrigel droplets were plated in 24-well plates and allowed to polymerize for 15 minutes at 37° C. Tumor dissociate was cultured in tumor media (basal media, 1:50 B27, 1 mM N-acetylcysteine, 10 mM nicotinamide, 10 nM recombinant human [Leu^15]-gastrin I, 50 ng/mL recombinant murine EGF, 100 ng/mL recombinant human FGF10, and 50 ng/mL recombinant human HGF) until organoids formed. To passage, organoids were removed from matrigel in basal media, spun down at 300 g for 5 minutes, mechanically broken via passage through a 21 g needle, washed in basal media, and re-plated in matrigel.
96-wells plates were coated with a 50:50 solution of matrigel:basal media, which was allowed to polymerize for 15 minutes at 37° C. Tumor organoids were mechanically broken as described above, counted, and seeded at 1,000 cells/well in tumor media. Following overnight incubation, serial drug dilutions were added to the tumor organoids. […] End-point viability was analyzed 3-days post-drug addition using CellTiter-Glo. Each treatment was performed in triplicate.

[2] = system: Human hepatocellular cancer (HCC) organoids; test: Treatment of human HCC and cholangiocarcinoma organoids, anti-tumor effects; assay type: cell-based; conditions: triplicate
Protocol: Human hepatocellular cancer (HCC) organoids were prepared from patients with non alcoholic steatohpepatitis (NASH), hepatitis B virus (HBV) and hepatitis C virus (HCV). The HCC organoids were generated according to protocols known in the art (Broutier, L., Andersson-Rolf, A., Hindley, C J., Boj, S F., Clevers, H., et al., Culture and establishment of self-renewing human and mouse adult liver and pancreas 3D organoids and their genetic manipulation. Nat Protoc. 2016. 11(9): 1724-43 and Broutier, L. Mastrogiovanni, G., Verstegen, M M., Francies, H E., Gavarro, L M., et al., Human primary liver cancer-derived organoid cultures for disease modeling and drug screening. Nat Med. 2017 23(12): 1424-1435). Organoids were also prepared from a single patient with cholangiocarcinoma (ICC). N-oleoyl serinol and N-oleoyl glycine were assayed for anti-tumor effects. Each treatment was performed in triplicate. […] N-oleoyl serinol was active specifically against HCCC organoids from patients with NASH.

Row | SMILES | IC50 ([1]; 72 h) [nM] | liver cancer growth and/or survival [1] | anti-tumor effects ([2]; all organoid cell lines (HCC from NASH, HBV, HCV patients; cholangiocarcinoma)) | anti-tumor effects ([2]; HCC organoids from patients with NASH) | IC50 [1] [nM]
1 | CCCCCCCC/C=C\CCCCCCCC(=O)NCCO [N-oleoyl ethanolamide, reference compound] | 126 | inhibit or reduce |  |  | 
2 | CCCCCCCC/C=C\CCCCCCCC(=O)NCC(=O)O [N-oleoyl glycine] | > 100000 |  | inactive |  | 
3 | CCCCCCCC/C=C\CCCCCCCC(=O)NC(CO)CO [N-oleoyl serinol] | 33.3 | inhibit or reduce |  | active | 
4 | CCCCCCCCCCCCCCCC(=O)NCC(=O)O [N-palmitoyl glycine] |  |  |  |  | > 100000
5 | CCCCCCCCCCCCCCCC(=O)NC(CO)CO [palmitoyl serinol] | > 100000 |  |  |  | 
